Patent publication US20200038513A1, “MODULATORS OF FAK PROTEOLYSIS AND ASSOCIATED METHODS OF USE” (ARVINAS OPERATIONS, INC., priority 2018, published 2020)

System: MDA-MB-231 cells
Experiment: RPPA (reverse phase protein array)
Format: cell-based, human
Method: RPPA analysis was performed by MD Anderson Cancer Center RPPA core facility.
Examination of the Molecular Signaling Events) and/or Downstream Pathways Responsible for the Migration and Invasion Effects Observed by Exemplary Compound Treatment. To pinpoint these observations to a molecular signaling event or specific downstream pathway, reverse phase protein array (RPPA) analysis was performed (Table 4).

Cc1ncsc1-c1ccc(CNC(=O)[C@@H]2C[C@@H](O)CN2C(=O)[C@@H](NC(=O)CCOCCOc2ccc(Nc3ncc(C(F)(F)F)c(NCc4cccc(N(C)S(C)(=O)=O)c4)n3)cc2)C(C)(C)C)cc1 [Compound 102, (2S,4R)-1-((S)-3,3-dimethyl-2-(3-(2-(4-((4-((3-(N-methylmethylsulfonamido)benzyl)amino)-5-(trifluoromethyl)pyrimidin-2-yl)amino)phenoxy)ethoxy)propanamido)butanoyl)-4-hydroxy-N-(4-(4-methylthiazol-5-yl)benzyl)pyrrolidine-2-carboxamide]
rel. Protein level, cdc25C (500nM): 99.5% | rel. Protein level, eEF2 (500nM): 98.9% | rel. Protein level, eEF2K (500nM): 110.8% | rel. Protein level, eIF4E (500nM): 102.9% | rel. Protein level, eIF4E_pS209 (500nM): 95.8% | rel. Protein level, eIF4G (500nM): 96.7% | rel. Protein level, mTOR (500nM): 98.9% | rel. Protein level, mTOR_pS2448 (500nM): 92.3% | rel. Protein level, p21 (500nM): 98.7% | rel. Protein level, p27-Kip-1 (500nM): 101.1% | rel. Protein level, p27_pT198 (500nM): 100.1% | rel. Protein level, p38-MAPK (500nM): 93.4% | rel. Protein level, p38_pT180_Y182 (500nM): 93.4% | rel. Protein level, p44-42-MAPK (500nM): 112.7% | rel. Protein level, p53 (500nM): 113.6% | rel. Protein level, p70-S6K1 (500nM): 109.6% | rel. Protein level, p70-S6K_pT389 (500nM): 92.3% | rel. Protein level, p90RSK_pT573 (500nM): 98.5% | Fak level by RPPA (in words) (10% FBS, 8 hours): Fak degradation | p-Fak level by RPPA (in words) (10% FBS, 8 hours): reduced levels of p-Fak | rel. Protein level [%], SCD (antibody SCD, 500nM, n = 2): 94.3% | rel. Protein level [%], SDHA (antibody SDHA, 500nM, n = 2): 102.0% | rel. Protein level [%], SF2 (antibody SF2, 500nM, n = 2): 105.3% | rel. Protein level [%], SHP-2_pY542 (antibody SHP-2_pY542, 500nM, n = 2): 96.4% | rel. Protein level [%], SLC1A5 (antibody SLC1A5, 500nM, n = 2): 100.8% | rel. Protein level [%], SOD1- (antibody SOD1-, 500nM, n = 2): 101.4% | rel. Protein level [%], SOD2 (antibody SOD2, 500nM, n = 2): 103.5% | rel. Protein level [%], STING (antibody STING, 500nM, n = 2): 136.3% | rel. Protein level [%], Shc_pY317 (antibody Shc_pY317, 500nM, n = 2): 100.3% | rel. Protein level [%], Slfn11 (antibody Slfn11, 500nM, n = 2): 96.5% | rel. Protein level [%], Smac (antibody Smac, 500nM, n = 2): 100.9% | rel. Protein level [%], Smad1 (antibody Smad1, 500nM, n = 2): 96.6% | rel. Protein level [%], Smad3 (antibody Smad3, 500nM, n = 2): 110.8% | rel. Protein level [%], Smad4 (antibody Smad4, 500nM, n = 2): 100.2% | rel. Protein level [%], Snail (antibody Snail, 500nM, n = 2): 107.4% | rel. Protein level [%], Sox2 (antibody Sox2, 500nM, n = 2): 105.3% | rel. Protein level [%], Src (antibody Src, 500nM, n = 2): 103.5% | rel. Protein level [%], Src_pY419 (antibody Src_pY419, 500nM, n = 2): 98.9% | rel. Protein level [%], Src_pY527 (antibody Src_pY527, 500nM, n = 2): 91.0% | rel. Protein level [%], Stat3 (antibody Stat3, 500nM, n = 2): 99.2% | rel. Protein level [%], Stat3_pY705 (antibody Stat3_pY705, 500nM, n = 2): 119.9% | rel. Protein level [%], Stat5a (antibody Stat5a, 500nM, n = 2): 111.4% | rel. Protein level [%], Stathmin-1 (antibody Stathmin-1, 500nM, n = 2): 101.8% | rel. Protein level [%], Syk (antibody Syk, 500nM, n = 2): 92.8% | rel. Protein level [%], TAZ (antibody TAZ, 500nM, n = 2): 89.0% | rel. Protein level [%], TFAM (antibody TFAM, 500nM, n = 2): 107.8% | rel. Protein level [%], TFRC (antibody TFRC, 500nM, n = 2): 99.8% | rel. Protein level [%], TIGAR (antibody TIGAR, 500nM, n = 2): 96.8% | rel. Protein level [%], TRIM25 (antibody TRIM25, 500nM, n = 2): 108.0% | rel. Protein level [%], TSC1 (antibody TSC1, 500nM, n = 2): 106.5% | rel. Protein level [%], TTF1 (antibody TTF1, 500nM, n = 2): 102.7% | rel. Protein level [%], TUFM (antibody TUFM, 500nM, n = 2): 96.9% | rel. Protein level [%], TWIST (antibody TWIST, 500nM, n = 2): 96.9% | rel. Protein level [%], Tau (antibody Tau, 500nM, n = 2): 101.7% | rel. Protein level [%], Transglutaminase (antibody Transglutaminase, 500nM, n = 2): 107.8% | rel. Protein level [%], Tuberin (antibody Tuberin, 500nM, n = 2): 106.3% | rel. Protein level [%], Tuberin_pT1462 (antibody Tuberin_pT1462, 500nM, n = 2): 93.5% | rel. Protein level [%], Tyro3 (antibody Tyro3, 500nM, n = 2): 98.8% | rel. Protein level [%], U-Histone-H2B (antibody U-Histone-H2B, 500nM, n = 2): 108.7% | rel. Protein level [%], UBAC1 (antibody UBAC1, 500nM, n = 2): 100.4% | rel. Protein level [%], UGT1A (antibody UGT1A, 500nM, n = 2): 94.3% | rel. Protein level [%], ULK1_pS757 (antibody ULK1_pS757, 500nM, n = 2): 100.9% | rel. Protein level [%], VASP (antibody VASP, 500nM, n = 2): 108.6% | rel. Protein level [%], VEGFR-2 (antibody VEGFR-2, 500nM, n = 2): 93.7% | rel. Protein level [%], VHL-EPPK1 (antibody VHL-EPPK1, 500nM, n = 2): 90.7% | rel. Protein level [%], WIPI1 (antibody WIPI1, 500nM, n = 2): 112.5% | rel. Protein level [%], WIPI2 (antibody WIPI2, 500nM, n = 2): 108.8% | rel. Protein level [%], Wee1 (antibody Wee1, 500nM, n = 2): 92.3% | rel. Protein level [%], Wee1_pS642 (antibody Wee1_pS642, 500nM, n = 2): 94.7% | rel. Protein level [%], XBP-1 (antibody XBP-1, 500nM, n = 2): 92.8% | rel. Protein level [%], XPA (antibody XPA, 500nM, n = 2): 96.4% | rel. Protein level [%], XPF (antibody XPF, 500nM, n = 2): 109.0% | rel. Protein level [%], XRCC1 (antibody XRCC1, 500nM, n = 2): 104.0% | rel. Protein level [%], YAP (antibody YAP, 500nM, n = 2): 95.4% | rel. Protein level [%], YAP_pS127 (antibody YAP_pS127, 500nM, n = 2): 106.2% | rel. Protein level [%], YB1_pS102 (antibody YB1_pS102, 500nM, n = 2): 92.3% | rel. Protein level [%], ZAP-70 (antibody ZAP-70, 500nM, n = 2): 92.5%
